Entries after “also recorded” stand apart in the source; their conditions may differ.
Tested on: rhesus monkeys trained to self-administer cocaine
Test: Cocaine self-administration, Rapid Assessment (Rapid Dose Effect) Procedure, cocaine dose-effect curve
Assay type: in vivo, rhesus monkeys (Macaca mulatta)
Experimental: The test compound (O-carbamoyl-(D)-phenylalaminol) was tested for the effects on cocaine self-administration in rhesus monkeys. Rhesus monkeys were trained to self-administer cocaine (0.032 mg/kg/inj, i.v.) and 1 g banana-flavored food pellets during 2-hr experimental sessions in the Rapid Assessment Procedure. Each session consisted of four 20-min components of drug availability (100-min), each separated by a 5-min timeout period. The four components of drug availability were preceded and followed by […] components of food availability. During training, unit doses of cocaine were varied across components of the session (0.001-0.03 or 0.01-0.32 mg/kg/inj) to provide full dose effect curves for cocaine self-administration. The position and slope of the dose-effect curve varied among monkeys and, generally, was represented by an inverted-U shape function characteristic for cocaine self-administration under fixed-ratio schedules. In some sessions, the unit dose of cocaine at the peak of the dose-effect curve for i.v. self-administration (0.0032 or 0.032 mg/kg/inj) was kept constant across components of the session. After baseline cocaine dose-effect curves and the effects of peak dose availability throughout the session were stable, experiments with test compound were begun.
Next, the Rapid Assessment Procedure was used to evaluate the effects of a single i.m. dose of test compound on self-administration of a range of unit doses of cocaine within a single experimental session. […] During rapid assessment studies, food-maintained behavior was disrupted in two monkeys and unaffected in the remaining two monkeys, resulting in a >50% decrease in averaged response rates prior to or following sessions of cocaine self-administration.
Subjects. Five male rhesus monkeys (Macaca mulatta), 89B013, 96D155, 97D105, RQ22 15, and 93N082, were trained to respond for the delivery of 1-g banana pellets under a program of gradually increasing values of a fixed-ratio (FR) schedule until performance was maintained under the terminal FR 30 response schedule. Then, a double-lumen intravenous catheter was surgically implanted under aseptic-conditions in each monkey. Subsequently, monkeys were trained to respond for cocaine (see below). All monkeys were maintained under identical housing conditions as specified under contract DA-7-8073. Individual monkeys had visual, auditory, and olfactory contact with other monkeys, and several types of enrichment devices were provided in the home chamber.
Apparatus. All experimental equipment was identical to that used in our previously described drug self-administration studies. Briefly, each monkey was housed individually in a well-ventilated stainless steel chamber (64×64×79 cm). The home cages of all monkeys were modified to include an operant panel (28×28 cm) mounted on the front wall and fitted with response keys that could be trans-illuminated by red or green stimulus lights (LEDs). The operant panel also supported an externally-mounted pellet dispenser (Gerbrands, Model G5210) that delivered 1 gm fruit-flavored food pellets (P. J. Noyes Co., Lancaster, N.H.) to a food receptacle mounted on the cage beneath the operant response panel. Two syringe pumps (Model B5P-IE, Braintree Scientific, Braintree, Mass.; or Model 980210, Harvard Apparatus, South Natick, Mass.) were mounted above each cage for delivery of saline or drug solutions through the double-lumen intravenous catheters. Operation of the operant panels and data collection were accomplished with an LBM-compatible computer supplied by Med Associates, Inc., and located in an adjacent room. The experimental control hardware was supplied by Med Associates, Inc., and was controlled by customized-software written in MedState Notation.
Test sessions. A diagram of the Rapid Assessment Procedure is shown in the drawing. Test sessions occurred twice daily beginning at 11 a.m. and 3 p.m. […]

[1] = 32 mg/kg i.m. pretreatment, averaged for the group
[2] = 32 mg/kg i.m., monkeys 96D155, 93N082 and 97D105

SMILES: NC(=O)OC[C@H](N)Cc1ccccc1 [test compound, O-carbamoyl-(D)-phenylalaminol]
- Displacement of the descending portion of the cocaine dose-effect curve (32 mg/kg i.m.): leftward and upward displacement
- Effect on responding during availability of saline or low unit doses of i.v. cocaine (0.001-0.01 mg/kg) [1]: either increased or did not change response rates; also recorded: increased responding
- Effect on self-administration of higher unit doses of i.v. cocaine (0.032-0.32 mg/kg) [1]: decreased cocaine self-administration behavior
- Decrease in food-maintained responding (averaged response rates), Food 1 and Food 2 (32 mg/kg i.m., averaged for the group, rapid assessment): > 50%
- Decrease in food-maintained responding, Food 1 (32 mg/kg i.m., monkey RQ2215): 40%
- Responding during availability of saline or unit doses of i.v. cocaine 0.001-0.032 mg/kg/injection (32 mg/kg i.m., monkey RQ2215): inconsistently increased
- Responding during availability of unit doses of 0.1 and 0.32 mg/kg cocaine (32 mg/kg i.m., monkey RQ2215): unchanged
- Food-maintained responding, Food 1 (32 mg/kg i.m., monkeys 93N082 and 97D105): nearly eliminated
- Effect on i.v. self-administration during availability of higher unit doses of cocaine [2]: reduced i.v. self-administration behavior
- Effect on responding during availability of saline or low unit doses of cocaine (0.001-0.01 mg/kg) [2]: increased responding
- Food-maintained responding, Food 2 [2]: nearly eliminated
